Two compounds from patent US20130005696A1, “BUFADIENOLIDE DERIVATIVES, PREPARING PROCESS THEREOF, COMPOSITION COMPRISING THE SAME AND THE USE THEREOF” (priority 2011, published 2013) can be followed below.

Structures are written as SMILES. Read-outs that look alike come from different tables or passages of the source.

The subject of test [1] is A-549 human non-small cell lung carcinoma cell line. Briefly: In vitro antitumor activity assay (SRB), A549. It counts as cell-based. An excerpt:
(§1) HeLa human cervical carcinoma cell line, A-549 human non-small cell lung carcinoma cell line, NCI-H2228 human lung carcinoma cell line, NCI-H460 human lung carcinoma cell line, MDA-MB-231 human breast carcinoma cell line, MCF-7 human breast carcinoma cell line, Bel-7402 human hepatic carcinoma cell line, Hep3B human hepatic carcinoma cell line, QGY-7703 human hepatic carcinoma cell line, MV-4-11 human leukemic cell line, DAUDI human leukemic cell line, Jurkat human leukemic cell line, A498 renal carcinoma cell line, LoVo human colon carcinoma cell line, HCT1116 human colon carcinoma cell line, A431 human skin carcinoma cell line, PANC-1 human pancreatic carcinoma cell line, U87-MG human brain carcinoma cell line, SH-SY5Y human brain carcinoma cell line, RPMI-8226 human bone carcinoma cell line, HT1080 human fibrosarcoma cell line, PC-3 human prostatic carcinoma cell line, AGS human gastric adenocarcinoma cell line, and BGC-823 human gastric adenocarcinoma cell line were purchased from the Cell Bank of the Chinese Academy of Sciences.
(§2) The positive control is bufalin (formulated according to the common method), its purity is 98% or more by HPLC-UV and its structure is identified by NMR. The compounds to be tested and the positive control were diluted with normal saline with a concentration gradient of 10^−4 M, 10^−5 M, 10^−6 M, 10^−7 M and 10^−8 M.
(§3) According to cell growth rate, tumor cells in the log phase of growth were seeded into 96-well culture plates at 100 μL per well, and allowed to attach for 24 hours, followed by addition of a test compound or positive control at 10 μL per well. For each concentration, the test was carried out in triplicate wells. Solvent control wells with addition of normal saline into cell culture and a blank well containing only cell culture medium but without cells for zeroing were also included. The tumor cells were incubated for 72 hours at 37° C. under 5% CO2, and then the culture medium (RPMI-1640) was removed. The cells were fixed with 10% cool TCA by incubating for 1 h at 4° C., washed with distilled water for 5 times, and dried naturally in the air. A solution of SRB (Sigma) (4 mg/mL) in 1% glacial acetic acid was added at 100 μL per well, and the cells were stained for 15 minutes at room temperature, and the supernatant was discarded. The plates were washed for 5 times with 1% acetic acid, and dried in air. Finally, Tris solution was added at 150 μL per well, and the absorbance (A) was measured at a wavelength of 515 nm using a microplate reader. The growth inhibition on tumor cell proliferation was calculated according to the following equation:
(§4) Growth Inhibition (%)=[(Absorbance of negative control−Absorbance of blank)−(Absorbance of sample−Absorbance of blank)]/(Absorbance of negative control−Absorbance of blank)×100%
(§5) Drug concentration: 10 μM, 1 μM, 0.1 μM, 10 nM, 1 nM, 0.1 nM.
(§6) IC50 was fitted by GraphPad Prism 4.

In test [2] the test system is MCF-7 human breast carcinoma cell line. Briefly: In vitro antitumor activity assay (SRB), MCF-7. It counts as cell-based.
From the text: as §1, §2, §3, §4, §5, §6

Test [3] deals with PC-3 human prostatic carcinoma cell line. Briefly: In vitro antitumor activity assay (SRB), PC-3. In kind it is cell-based.
From the text: as §1, §2, §3, §4, §5, §6

Test [4] has as its system MV-4-11 human leukemic cell line. Kind of test: In vitro antitumor activity assay (SRB), MV-4-11. It counts as cell-based. The settings on record: MV-4-11, 72 h, Table 3.
From the text: as §1, §2
(§7) According to cell growth rate, tumor cells in the log phase of growth were seeded into 96-well culture plates at 100 μL per well, and allowed to attach for 24 hours, followed by addition of a test compound or positive control at 10 μL per well. For each concentration, the test was carried out in triplicate wells. […] Finally, Tris solution was added at 150 μL per well, and the absorbance (A) was measured at a wavelength of 515 nm using a microplate reader. The growth inhibition on tumor cell proliferation was calculated according to the following equation:
(§8) Growth Inhibition (%)=[(Absorbance of negative control−Absorbance of blank)−(Absorbance of sample−Absorbance of blank)]/(Absorbance of negative control−Absorbance of blank)×100% […]

The test system of test [5] is Jurkat human leukemic cell line. Kind of test: In vitro antitumor activity assay (SRB), Jurkat. It counts as cell-based. The settings on record: 72 h, Table 3.
From the text: as §1, §2, §7, §8

Test [6] concerns DAUDI human leukemic cell line. Kind of test: In vitro antitumor activity assay (SRB), Daudi. Conditions: 72 h, Table 3. It counts as cell-based.
From the text: as §1, §2, §7, §8

In test [7] the test system is NCI-H2228 human lung carcinoma cell line. Kind of test: In vitro antitumor activity assay (SRB), NCI-H2228. In kind it is cell-based. Conditions: NCI-H2228, 72 h, Table 3.
From the text: as §1, §2, §7, §8

The subject of test [8] is BGC-823 human gastric adenocarcinoma cell line. Briefly: In vitro antitumor activity assay (SRB), BGC-823. It counts as cell-based. Conditions: BGC-823, 72 h, Table 3.
From the text: as §1, §2, §7, §8

In test [9] the test system is MDA-MB-231 human breast carcinoma cell line. Briefly: In vitro antitumor activity assay (SRB), MDA-MB-231. In kind it is cell-based. The settings on record: MDA-MB-231, 72 h, Table 3.
From the text: as §1, §2, §7, §8

The test system of test [10] is HepG2 human-derived tumor cell line. Briefly: In vitro antitumor activity assay (SRB), HepG2. In kind it is cell-based. Conditions: HepG2, 72 h, Table 3.
Test [11] deals with Hep3B human hepatic carcinoma cell line. Kind of test: In vitro antitumor activity assay (SRB), Hep3B. It counts as cell-based. Conditions: 72 h, Table 3.
From the text: as §1, §2, §7, §8

Test [12] relates to QGY-7703 human hepatic carcinoma cell line. Kind of test: In vitro antitumor activity assay (SRB), QGY7703. In kind it is cell-based. Conditions: QGY7703, 72 h, Table 3.
From the text: as §1, §2, §7, §8

For test [13], the system named is A498 renal carcinoma cell line. Kind of test: In vitro antitumor activity assay (SRB), A498. It counts as cell-based, human. The settings on record: A498, 72 h, Table 3.
From the text: as §1, §2, §7, §8

Test [14] relates to human non-small cell lung carcinoma A549 xenograft. Briefly: In vivo therapeutic effect against A549 xenograft in nude mice. Conditions: for inhibition of growth of human lung carcinoma A549 xenograft, in words: A549 xenograft in nude mice, bufalin at 1.6 mg/kg; for Inhibition Rate (%) / Tumor Weight(g) Mean ± SE: A549 xenograft, after 21 days. How it is done:
This experiment is to evaluate the in vivo therapeutic effects of compounds bufalin, II1D-06.HCl, II1E-01.HCl and II1B-02.HCl against human-derived lung carcinoma A549 cell xenograft in nude mice.
Solvent control: 4% DMSO & 2% Tween-80 & 5% PEG-400 solution in normal saline
Compounds to be tested: bufalin, II1B-02.HCl, II1E-01.HCl, II1D-06.HCl
Formulating method: the compound was dissolved with DMSO into a stock solution, which was then diluted into an injection with a final DMSO concentration of 4%.
Positive control: Rapamycin Formulating method: it was formulated into an injection with a final DMSO concentration of 4%.
After the tumor size reaches about 200 mm^3, the mice bearing the tumor were grouped randomly into 8 groups according to the tumor size, including the groups of solvent control, positive control rapamycin 5 mg/kg, II1E-01.HCl 2 mg/kg, II1E-01.HCl 4 mg/kg, II1E-01.HCl 6 mg/kg, II1B-02.HCl 4 mg/kg, II1D-06.HCl 4 mg/kg, bufalin 1.6 mg/kg, wherein the dosage selection is based on that the maximum tolerable dosage is 1.6 mg/kg for bufalin and 6 mg/kg for II1E-01.HCl. Rapamycin was administered intravenously once a week (QW) and the other groups were administered intraperitoneally once every other day (QOD). The tumor was weighted after 21 days to calculate the inhibition rate. The equation for calculating inhibition rate (IR) is IR=(WC−WT)/WC×100%, wherein, WC represents the tumor weight of the control group, and WT represents the tumor weight of the treating group.
On the technique in general: In xenograft studies the graft and the host belong to different species.

`C[C@]12CC[C@H](OC(=O)NC3CCNCC3)C[C@H]1CC[C@@H]1[C@@H]2CC[C@]2(C)[C@@H](c3ccc(=O)oc3)CC[C@]12O.Cl` [II1E-01•HCl]: the IC50 in test [1] (A549, 72 h, Table 3, read-out: IC50 (72 h), A549) is 0.4 ± 0.22 nM; in test [2] (MCF-7, 72 h, Table 3, read-out: IC50 (72 h), MCF-7), 10.8 ± 1.08 nM; in test [3] (PC-3, 72 h, Table 3, read-out: IC50 (72 h), PC-3) it was 0.3 ± 0.08 nM; in test [4], 0.64 ± 0.11 nM; in test [5] it was 0.67 ± 0.1 nM; in test [6], 2.34 ± 0.22 nM. Also, the IC50 is 1.62 ± 0.5 nM in test [7]; 0.56 ± 0.07 nM in test [8]; 7.31 ± 0.21 nM in test [9]; 0.33 ± 0.02 nM in [10]; over 1000 nM in [11]; 1.72 ± 0.08 nM in test [12]. This compound had an IC50 in test [13] of 0.37 ± 0.05 nM. For the same compound, in [14], the “inhibition of growth of human lung carcinoma A549 xenograft, in words” value is reported as “significantly inhibit the growth”. The “Inhibition Rate (%)” value in test [14] (2 mg/kg ip QOD) is given as 32.43%; in [14] (4 mg/kg ip QOD), 70.57%; in test [14] (6 mg/kg ip QOD), 87.70%. The “Tumor Weight(g) Mean ± SE” value in test [14] (2 mg/kg ip QOD) is recorded as 1.1375 ± 0.1044 g; in test [14] (4 mg/kg ip QOD), 0.4953 ± 0.0301 g; in test [14] (6 mg/kg ip QOD), 0.2070 ± 0.0193 g.
Turning to `C[C@]12CC[C@H](O)C[C@H]1CC[C@@H]1[C@@H]2CC[C@]2(C)[C@@H](c3ccc(=O)oc3)CC[C@]12O` [bufalin, reference compound], the IC50 is 8.74 ± 2.52 nM in [1] (Homo sapiens, A549, 72 h, Table 3, read-out: IC50 (72 h), A549); 6.53 ± 1.64 nM in test [1] (Homo sapiens, A549, Table 2, read-out: IC50, inhibition of cell proliferation, A549); 45.9 ± 5.18 nM in test [2] (Homo sapiens, MCF7, MCF-7, 72 h, Table 3, read-out: IC50 (72 h), MCF-7); 28.8 ± 3.71 nM in test [2] (Homo sapiens, MCF7, MCF-7, Table 2, read-out: IC50, inhibition of cell proliferation, MCF-7); 5 ± 0.45 nM in [3] (Homo sapiens, Prostatic carcinoma cell, PC-3, 72 h, Table 3, read-out: IC50 (72 h), PC-3); 17.3 ± 2.76 nM in test [3] (Homo sapiens, Prostatic carcinoma cell, PC-3, Table 2, read-out: IC50, inhibition of cell proliferation, PC-3). In addition, the IC50 worked out at 6.26 ± 2.22 nM in [4] (Homo sapiens, MV4-11); 8.79 ± 2.48 nM in [5] (Homo sapiens); 12.6 ± 0.76 nM in [6] (Homo sapiens); 16.1 ± 2.51 nM in [7] (Homo sapiens); 9.06 ± 0.37 nM in [8] (Homo sapiens); 28.7 ± 1.66 nM in [9] (Homo sapiens). Moreover, the IC50 in test [10] (Homo sapiens) is 6.02 ± 0.71 nM; in test [11] (Homo sapiens), over 1000 nM; in test [12] (Homo sapiens, QGY-7703) it was 12.8 ± 0.47 nM; in test [13] (Homo sapiens) it was 6.41 ± 0.75 nM. Also, the “inhibition of growth of human lung carcinoma A549 xenograft, in words” value in test [14] is “did not express strong inhibitory activity”. Further, in test [14] (1.6 mg/kg ip QOD), the “Inhibition Rate (%)” value is 8.99%. Also, the “Tumor Weight(g) Mean ± SE” value in test [14] (1.6 mg/kg ip QOD) is on record as 1.5320 ± 0.0624 g.
